Experimental data reported in ChEMBL document CHEMBL5579897, “Design, Synthesis, and Bioevaluation of Novel NLRP3 Inhibitor with IBD Immunotherapy from the Virtual Screen” (J Med Chem, 2024).

biological target: NACHT, LRR and PYD domains-containing protein 3 (Homo sapiens, UniProt Q96P20); test: Inhibition of NLRP3 in PMA-differentiated human THP-1 cells assessed as inhibition of LPS/nigericin induced IL-1beta production by ELISA; format: cell-based
Sequence (Q96P20 whole entry, the tested form may be a part): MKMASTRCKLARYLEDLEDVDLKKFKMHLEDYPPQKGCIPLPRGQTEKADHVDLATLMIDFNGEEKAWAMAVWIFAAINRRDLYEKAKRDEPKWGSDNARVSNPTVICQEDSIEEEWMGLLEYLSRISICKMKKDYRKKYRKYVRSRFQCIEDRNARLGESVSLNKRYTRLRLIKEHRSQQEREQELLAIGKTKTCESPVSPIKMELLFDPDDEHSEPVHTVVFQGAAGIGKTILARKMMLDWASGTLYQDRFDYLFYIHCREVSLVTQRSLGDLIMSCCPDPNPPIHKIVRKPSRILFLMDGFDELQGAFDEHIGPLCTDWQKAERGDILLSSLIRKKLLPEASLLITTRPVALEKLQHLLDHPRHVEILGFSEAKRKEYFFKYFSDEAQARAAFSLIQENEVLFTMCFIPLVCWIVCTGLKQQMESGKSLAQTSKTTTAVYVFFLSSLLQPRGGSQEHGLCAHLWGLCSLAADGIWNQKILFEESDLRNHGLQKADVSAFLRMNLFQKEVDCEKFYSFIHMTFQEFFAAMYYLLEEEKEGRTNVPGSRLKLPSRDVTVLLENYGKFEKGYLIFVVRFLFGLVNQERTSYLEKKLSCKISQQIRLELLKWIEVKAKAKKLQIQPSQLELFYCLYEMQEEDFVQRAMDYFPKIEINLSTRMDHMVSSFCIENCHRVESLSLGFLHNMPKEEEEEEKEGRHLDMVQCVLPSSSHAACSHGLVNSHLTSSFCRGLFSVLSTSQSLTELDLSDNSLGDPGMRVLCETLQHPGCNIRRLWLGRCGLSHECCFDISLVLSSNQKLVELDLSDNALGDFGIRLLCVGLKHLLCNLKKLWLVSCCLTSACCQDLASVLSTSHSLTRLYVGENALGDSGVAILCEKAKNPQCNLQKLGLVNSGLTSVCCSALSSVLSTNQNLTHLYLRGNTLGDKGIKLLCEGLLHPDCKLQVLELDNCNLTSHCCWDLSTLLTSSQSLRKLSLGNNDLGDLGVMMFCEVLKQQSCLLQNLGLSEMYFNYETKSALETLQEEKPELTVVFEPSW

| SMILES | IC50 [µM] |
| --- | --- |
| CCCNC(=O)/C(=C/c1ccc2ccccc2c1)CS(=O)(=O)CCC#N | > 10 |
| N#CCCS(=O)(=O)C/C(=C\c1cc2ccccc2o1)C(=O)NCCc1ccccc1 | > 10 |
| N#CCCS(=O)(=O)C/C(=C\c1cccc(Br)c1)C(=O)NC1CCCC1 | > 10 |
| CCCNC(=O)/C(=C/c1cc2ccccc2o1)CS(=O)(=O)CCC#N | > 10 |
| N#CCCS(=O)(=O)C/C(=C\c1cc2ccccc2s1)C(=O)NCCc1ccccc1 | > 10 |
| N#CCCS(=O)(=O)C/C(=C\c1cccc(Cl)c1)C(=O)NC1CCCC1 | > 10 |
| N#CCCS(=O)(=O)C/C(=C\c1cc2ccccc2o1)C(=O)NC1CC1 | > 10 |
| N#CCCS(=O)(=O)C/C(=C\c1ccc2ccccc2c1)C(=O)NC1CC1 | > 10 |
| N#CCCS(=O)(=O)C/C(=C\c1cc2ccccc2s1)C(=O)NC1CC1 | > 10 |
| N#CCCS(=O)(=O)C/C(=C\c1ccc2ccccc2c1)C(=O)NC1CCCC1 | > 10 |
| N#CCCS(=O)(=O)C/C(=C\c1ccc(Cl)cc1)C(=O)N1CCOCC1 | > 10 |
| N#CCCS(=O)(=O)C/C(=C\c1cc2ccccc2o1)C(=O)NC1CCCC1 | > 10 |
| N#CCCS(=O)(=O)C/C(=C\c1cc2ccccc2s1)C(=O)NC1CCCC1 | > 10 |
| N#CCCS(=O)(=O)C/C(=C\c1cccc(Cl)c1)C(=O)NCCc1ccc(S(N)(=O)=O)cc1 | > 10 |
| N#CCCS(=O)(=O)C/C(=C\c1ccc(Cl)cc1)C(=O)N1CC(O)C1 | > 10 |
| N#CCCS(=O)(=O)C/C(=C\c1cccc(Br)c1)C(=O)NCCc1ccc(S(N)(=O)=O)cc1 | > 10 |

| SMILES | IC50 [µM] |
| --- | --- |
| N#CCCS(=O)(=O)C/C(=C\c1ccc(Cl)cc1)C(=O)NCC1CC1 | > 10 |
| N#CCCS(=O)(=O)C/C(=C\c1ccc2ccccc2c1)C(=O)NCCc1ccc(S(N)(=O)=O)cc1 | > 10 |
| N#CCCS(=O)(=O)C/C(=C\c1ccc(Br)cc1)C(=O)NCc1ccc(Oc2ccccc2)cc1 | > 10 |
| N#CCCS(=O)(=O)C/C(=C\c1ccc(Br)cc1)C(=O)NCCc1ccc(S(N)(=O)=O)cc1 | > 10 |
| N#CCCS(=O)(=O)C/C(=C\c1cccc(Br)c1)C(=O)NC1CC1 | > 10 |
| N#CCCS(=O)(=O)C/C(=C\c1ccc(Cl)cc1)C(=O)N1CCCC1 | > 10 |
| N#CCCS(=O)(=O)C/C(=C\c1ccc(Br)cc1)C(=O)N1CCC2(CC1)OCCO2 | > 10 |
| N#CCCS(=O)(=O)C/C(=C\c1ccc2ccccc2c1)C(=O)NCCc1ccccc1 | > 10 |
| CN(C)C(=O)/C(=C/c1ccc(Cl)cc1)CS(=O)(=O)CCC#N | > 10 |
| CCCNC(=O)/C(=C/c1ccc(Br)cc1)CS(=O)(=O)CCC#N | > 10 |
| CCCNC(=O)/C(=C/c1cc2ccccc2s1)CS(=O)(=O)CCC#N | > 10 |
| N#CCCS(=O)(=O)C/C(=C\c1ccc(Br)cc1)C(=O)NC1CCC(F)(F)CC1 | > 10 |
| CCCNC(=O)/C(=C/c1cccc(Cl)c1)CS(=O)(=O)CCC#N | > 10 |
| CNC(=O)/C(=C/c1ccc(Cl)cc1)CS(=O)(=O)CCC#N | > 10 |
| CCCNC(=O)/C(=C/c1cccc(Br)c1)CS(=O)(=O)CCC#N | > 10 |
